Source: patent US8470983B2, “L-sugar colon cleansing agent and uses thereof” (Aptalis Pharma Canada Inc., priority 2009, dated 2013)

Legend:
[1] = Dissolution of L-glucose monohydrate versus anhydrous L-glucose in water with consumer-like stirring; format: physicochemical; conditions: for Time of stirring until sample fully dissolved: 53 g L-glucose monohydrate in 240 mL doubly distilled water; for Observation of undissolved solid / clumping / Appearance of final solution: 240 mL water
Procedure: The following describes methods for determining the increased dissolution rate of L-glucose monohydrate comprising compositions.
Each sample comprises approximately an equivalent amount of L-glucose on a weight basis. Carefully, to avoid agitation and mixing, doubly distilled water (240 mL) is added to each beaker. In one example, the solution is stirred immediately after addition of water. In a second example, the solutions are allowed to stand for 5 minutes before agitation. The stiffing was conducted in a manner duplicating the way a consumer is expected to stir a sample prior to use. The following Table summaries these experiments which were conducted in duplicate.

[2] = 90-day dietary study of L-glucose; format: in vivo
Procedure: (§1) In preclinical studies, there was no metabolism of L-glucose in any mammalian species studied. […] The maximum tolerated dose in rats was determined to be 10% dietary level of L-glucose.

[3] = 24-g single dose; Raymer scale; cited from earlier work
[4] = Comparative Example 1: multicenter, double-blind, dose-range-finding study of L-glucose as colon-cleansing agent before colonoscopy; format: in vivo, human; conditions: single doses 12 g, 16 g, 20 g, 24 g
Procedure: A multicenter, double-blind, dose-range-finding study to evaluate the effectiveness and safety of L-glucose as a colon-cleansing agent before colonoscopy was conducted. Doses used in this study were 12 g, 16 g, 20 g, and 24 g. The assessment of the preparations was based on the scale used in Hsu et al., “Meta-analysis and cost comparison of polyethylene glycol lavage versus sodium phosphate for colonoscopy preparation,” Gastrointestinal Endoscopy 48(3):276-282, 1998, wherein small bits of fecal material in the colon were allowed in an “Excellent” score.

[5] = parameters: species or system mice, rats, dogs, rabbits, and monkeys; conditions: in vivo
Procedure: as §1

[6] = Comparative Example 2: randomized, single-blind study of L-glucose as bowel preparation before colonoscopy (GPA scale); format: in vivo, human
Procedure: (§2) Global Preparation Assessment
(§3) Excellent=clean colon or small volume of clear liquid
(§4) Good=moderate to large volume of clear to semiclear liquid
(§5) Fair=some semisolid stool suctioned or washed away
(§6) Poor=semisolid or solid stool unable to be suctioned or washed away
A randomized, single-blind study designed to determine the clinical effectiveness of L-glucose as a bowel preparation before colonoscopy was performed. Three dose regimens were evaluated: 24 g in the evening only, 30 g in the evening only, and 24 g in the evening followed by 12 g in the morning (36 g total). Here, Applicant's GPA scale described herein was used to evaluate the preparations. […] Clinical efficacy (defined as a combination of “excellent” and “good” assessments) for the split-dose schedule was 19/27 (70%), as compared to 7/31 (23%) in the single-dose schedule (p<0.001).
As noted above in the description of Applicant's GPA scale, the criteria for determining whether a preparation was deemed “excellent” or “good” was respectively defined as “clean colon or small volume of clear liquid” or “moderate to large volume of clear to semi-clear liquid.” These criteria are more stringent than the rating system used by Raymer et al. discussed supra since Raymer's “excellent” and “good” ratings were respectively defined as “no more than small bits of adherent fecal fluid” and “small amounts of feces or fluid not interfering with the examination.” Thus, Raymer's “excellent” rating would likely not qualify as even a “good” rating in Applicant's GPA scale.

[7] = Clinical studies of L-glucose absorption, elimination and tolerability; format: in vivo, human
[8] = Example 3: open-label, 2-site dose-escalating split-dose study of L-glucose before colonoscopy (GPA and RSS); format: in vivo, human
Source text: Applicants have relied upon a combination of a categorical, 4-point scale and a numerical, segmental scoring system to assess bowel cleansing quality (Balaban et al. “Low volume bowel preparation for colonoscopy: randomized, endoscopist-blinded trial of liquid sodium phosphate versus tablet sodium phosphate,” Am J Gastroenterol 98:827-32, 2003). The basic 4-point scale, known as the Global Preparation Assessment (GPA), is essentially the same as the original scale used in the first randomized controlled trial of PHOSPHO-SODA™ as a bowel cleansing agent published in 1990 by Vanner, et al. (“A randomized prospective trial comparing oral sodium phosphate with standard polyethylene glycol-based lavage solution (Golytely) in the preparation of patients for colonoscopy,” Am J Gastroenterol 85:422-7, 1990). The numerical scoring system, known as the Residual Stool Score (RSS), is a continuously variable, averaged segmental scoring instrument that assesses both the amount and consistency of residual stool before suctioning (a measure of the cathartic activity of the bowel cleansing regimen) as well as the percent of the bowel wall seen after washing and cleansing (a measure of the ultimate endpoint for bowel preparation success). The two scales are shown below.
as §2, §3, §4, §5, §6
This open-label, 2-site study employed a dose-escalating design using 3 split doses of L-glucose (24 g/24 g, 36 g/36 g, and 48 g/48 g). The doses were administered the night before and the morning of a scheduled colonoscopy. The study was conducted in Phase I facilities to control for administration of L-glucose and adherence to the dietary and hydration regimen.
Three dose cohorts of 24 subjects were evenly divided between males and females for each cohort. Subjects who were scheduled to undergo an elective colonoscopy, who met the study entrance criteria, and who gave their consent to participate in the study were enrolled. […] Each subject observed a strict diet and hydration regimen as part of the study medication administration.
The site pharmacist prepared the L-glucose preparation based on the study medication preparation manual provided. Each subject, regardless of dose cohort, received the dose in 8 ounces of water, which was to be consumed within a 10-minute period. Dose cohorts proceeded in a dose-escalating fashion starting with the lowest dose (24 g/24 g) and escalated according to a dose escalation decision tree.
The physician performing the colonoscopy utilized Applicant's GPA scale to evaluate the quality of bowel preparation as before suctioning and washing.
The Residual Stool Score (RSS) described above was also used to assess bowel cleansing in each of the 5 segments of the bowel (rectum, descending colon, transverse colon, ascending colon, and cecum). As noted, assessments included the amount of stool present, the consistency of the stool, and the estimated percentage of the bowel wall visualized in each segment.
For reasons of inadequate bowel preparation, sections of the bowel that were not directly examined during colonoscopy were rated as “poor” on all three measures listed previously.
A total of 24 subjects were enrolled into each of the three dose cohorts. All 72 subjects were included in the intent-to-treat (ITT) and safety populations.

[9] = 5 min. delay before stirring, listed as L- glucose monohydrate^2, monohydrate
[10] = no delay before stirring, listed as L- glucose monohydrate^2, monohydrate
[11] = 24 g, 30 g, 24 g + 12 g regimens
[12] = Total of all three dose cohorts, ITT, N = 72

O.O=C[C@@H](O)[C@H](O)[C@@H](O)[C@@H](O)CO [L-glucose monohydrate]
Time of stirring until sample fully dissolved ([1]; 5 min. delay before stirring, listed as L- glucose monohydrate^1, monohydrate): Sample fully dissolved after 2.5 min. of stirring.
Time of stirring until sample fully dissolved [1, 9]: Fully dissolved after 1 min. of stirring. Final
Time of stirring until sample fully dissolved ([1]; no delay before stirring, listed as L- glucose monohydrate^1, monohydrate): Sample fully dissolved after 2.5 min. of stirring.
Time of stirring until sample fully dissolved [1, 10]: Fully dissolved after 2 min. of stirring. Final
Observation of undissolved solid / clumping ([1]; 5 min. delay before stirring): Several clusters of solid at 1 min. Final solution
Appearance of final solution [1, 9]: solution was clear, colorless and homogeneous
Observation of undissolved solid / clumping ([1]; no delay before stirring): Several clusters of solid at 1 min. Final solution
Appearance of final solution [1, 10]: solution was clear, colorless and homogeneous

O=C[C@@H](O)[C@H](O)[C@@H](O)[C@@H](O)CO [L-glucose]
Toxicity from continuous administration ([2]; rat, in vivo): no overt evidence of toxicity
Maximum tolerated dose ([2]; rats): 10 % dietary level
Subjects with colonoscopy preparation grade of excellent or good [3]: 80%
Acceptability as a colonic cleanser [4]: not acceptable
Effect of food restriction on metabolism [5]: no significant effect
Major route of elimination [5]: urinary excretion
Metabolism of L-glucose [5]: no metabolism
Outcome of evening-only dose arms ([6]; 24 g and 30 g evening-only doses): suspended for lack of effectiveness
Changes in laboratory test results [6, 11]: no clinically significant changes
Commonly reported adverse events [6, 11]: generally absent or mild
Overall tolerance to the bowel preparation [6, 11]: good or very good
Clinical efficacy (combination of excellent and good GPA assessments) ([6]; single-dose schedule (24 g or 30 g evening only), 7/31 subjects): 23%
Clinical efficacy (combination of excellent and good GPA assessments) ([6]; split-dose schedule: 24 g evening followed by 12 g morning, 19/27 subjects): 70%
Metabolism by colonic bacteria ([7]; breath hydrogen in humans, comparable with in vitro studies): colonic bacteria do not metabolize L-glucose
Absorption from the intestine ([7]; human, in vivo): moderately absorbed
Glucose or insulin response after administration ([7]; human, in vivo): No significant glucose or insulin response
Lower gastrointestinal symptoms (cramping, gas/flatus) ([7]; human, in vivo): occurred in a majority of subjects, but symptoms were mild
Major routes of elimination ([7]; human, in vivo): fecal and urinary excretion
Mild upper gastrointestinal symptoms (vomiting, nausea, belching/rifting, bloating) ([7]; human, in vivo): occurred in a minority of subjects
Global Preparation Assessment, Max ([8]; 24 g/24 g cohort, ITT, n = 24): 4.00
Global Preparation Assessment, Mean (SD) ([8]; 24 g/24 g cohort, ITT, n = 24): 3.29 (0.81)
Global Preparation Assessment, Median ([8]; 24 g/24 g cohort, ITT, n = 24): 3.50
Global Preparation Assessment, Min ([8]; 24 g/24 g cohort, ITT, n = 24): 2.00
Subjects with GPA Fair, number (percentage) ([8]; 24 g/24 g cohort, ITT, n = 24): 5 (20.8)
Subjects with GPA Good, number (percentage) ([8]; 24 g/24 g cohort, ITT, n = 24): 7 (29.2)
Subjects with GPA Poor, number (percentage) ([8]; 24 g/24 g cohort, ITT, n = 24): 0 (0.0)
Global Preparation Assessment, Max ([8]; 36 g/36 g cohort, ITT, n = 24): 4.00
Global Preparation Assessment, Median ([8]; 36 g/36 g cohort, ITT, n = 24): 4.00
Global Preparation Assessment, Min ([8]; 36 g/36 g cohort, ITT, n = 24): 1.00
Subjects with GPA Fair, number (percentage) ([8]; 36 g/36 g cohort, ITT, n = 24): 2 (8.3)
Subjects with GPA Good, number (percentage) ([8]; 36 g/36 g cohort, ITT, n = 24): 7 (29.2)
Global Preparation Assessment, Max ([8]; 48 g/48 g cohort, ITT, n = 24): 4.00
Global Preparation Assessment, Median ([8]; 48 g/48 g cohort, ITT, n = 24): 4.00
Global Preparation Assessment, Min ([8]; 48 g/48 g cohort, ITT, n = 24): 2.00
Subjects with GPA Fair, number (percentage) ([8]; 48 g/48 g cohort, ITT, n = 24): 1 (4.2)
Subjects with GPA Good, number (percentage) ([8]; 48 g/48 g cohort, ITT, n = 24): 1 (4.2)
Subjects with GPA Poor, number (percentage) ([8]; 48 g/48 g cohort, ITT, n = 24): 0 (0.0)
Efficacy compared among the three split doses ([8]; 48 g/48 g dose): greatest efficacy
Time to the first watery bowel movement, compared among doses ([8]; 48 g/48 g dose): shortest time to the first watery bowel movement
GPA, mean (SD) ([8]; Site 01, all dose cohorts): 3.68 (0.75)
Subjects who had a complete colonoscopy, number (percentage) ([8]; Site 01, all dose cohorts): 30 (96.8%)
Subjects with GPA rated poor, number (percentage) ([8]; Site 01, all dose cohorts): 1 (3.2%)
Subjects with GPA rated excellent ([8]; Site 01, all dose cohorts, 25 subjects): 80.7%
GPA, mean (SD) ([8]; Site 02, all dose cohorts): 3.41 (0.74)
Subjects who had a complete colonoscopy, number (percentage) ([8]; Site 02, all dose cohorts): 39 (95.1%)
Subjects with GPA rated excellent ([8]; Site 02, all dose cohorts, 23 subjects): 56.1%
Global Preparation Assessment, Max [8, 12]: 4.00
Global Preparation Assessment, Mean (SD) [8, 12]: 3.53 (0.75)^
Global Preparation Assessment, Median [8, 12]: 4.00
Global Preparation Assessment, Min [8, 12]: 1.00
Subjects with GPA Excellent, number (percentage) [8, 12]: 48 (66.7)
Subjects with GPA Fair, number (percentage) [8, 12]: 8 (11.1)
Subjects with GPA Good, number (percentage) [8, 12]: 15 (20.8)
Subjects with GPA Poor, number (percentage) [8, 12]: 1 (1.4)
Subjects who had a complete colonoscopy (to the level of the cecum), number (percentage) ([8]; in each dose cohort (24 g/24 g, 36 g/36 g, 48 g/48 g)): 23 (95.8%)
